Experimental findings from patent EP4545549B1, “INSECT NEUROPEPTIDES” (Solasta Bio Limited, priority 2023, dated 2025) are described below.

SMILES strings stand for the structures. Read-outs that look alike come from different tables or passages of the source. Residues, ends and D or L forms follow the SMILES beside them.

Data set [1] has as its system Bumblebee. Put plainly: Bee oral toxicity test (adapted from OECD Test No. 247: Bumblebee, Acute Oral Toxicity Test). It counts as in vivo. The note with it: after 96 hours of application; compared with sucrose or vehicle and Imidacloprid; Figure 10. As for the experimental part:
Bee oral testing protocol was carried out adapted from OECD Test No. 247: Bumblebee, Acute Oral Toxicity Test. The toxicity of SB-P-46 was compared with a negative control of sucrose or vehicle, and with a current commercial insecticide Imidacloprid.

Data set [2] deals with Amrasca biguttula (leaf hopper). The note with it: unformulated SB-P-46; 3 and 7 days after application; Figure 16. From the text:
(§1) The data has been processed in the ARM Field Trials software under license.

Data set [3] concerns Aphis fabae. The note with it: unformulated SB-P-46; for reduction in naturally infested Aphis fabae numbers as a percentage of untreated control crop: vining peas.
Source text: as §1

In data set [4] the test system is Aphis gossypii. As to conditions: Greece; cotton; unformulated SB-P-46; counted 3 days following application; Figure 14.
Source text: as §1
AgriScience conducted a field trial in Greece, investigating the efficacy of insecticidal peptides on aphids on cotton crop.

Data set [5] deals with Myzus persicae. As to conditions: unformulated SB-P-46; leaf dip; mortality assessed at 72, 96 and 120 hours; compared to vehicle and Spirotetramat; Figures 6 and 7.
Protocol: The assay was carried out based on IRAC susceptibility test method 019 (https://irac-online.org/methods/aphids-adultnymphs/).
Dip a 2.5 cm leaf disc into 3 ml of treatment solution allowing the treatment to coat the leaf. Leave the disc to dry for 1 hour and place onto the set agar. Place insects (aphids) onto each of the leaf discs. Each unit is sealed with a close-fitting, ventilated lid. Place the agar dishes in a small plastic tray lined with moist tissue paper and ensure the water trays in the bottom of the incubator are filled with clean water and place within the incubator. An assessment of mortality is made at 72, 96 and 120 hours. Leaf dip assays were performed with unformulated SB-P-46, and compared to a negative control vehicle and a current commercial insecticide Spirotetramat.

In the case of `CC(C)C[C@H](NC(=O)[C@H](CCCNC(=N)N)NC(=O)[C@@H]1CCCN1C(=O)[C@H](CO)NC(=O)[C@H](Cc1ccccc1)NC(=O)[C@@H]1CCCN1C(=O)[C@@H]1CCCN1C(=O)[C@H](CO)NC(=O)[C@H](Cc1ccc(O)cc1)NC(=O)[C@@H]1CCCN1C(=O)[C@@H]1CCCN1C(=O)[C@@H](N)CO)C(N)=O` [SB-P-46, [Hy]-SPPYSPPFSPRL-[NH2]] (H-SPPYSPPFSPRL-NH2), in data set [1], the “bee oral toxicity (% survival)” value is recorded as “far lower toxicity to key pollinator species such as bees compared to broad spectrum chemical insecticides such as Imidacloprid”. The “activity against naturally infested Amrasca biguttula (leaf hopper) in field trials” value in data set [2] is on record as “acted comparably to Flipper insecticide”. The “reduction in naturally infested Aphis fabae numbers as a percentage of untreated control crop” value in data set [3] (Wigtoft location, counted 4 days following application, Figure 12) was “similarly efficacious activity”; in data set [3] (field trial 1, Chatteris location, counted 14 days following application, Figure 11), “performed comparably to the conventional insecticides Stealth and Teppeki (sprayed as Treatment 1), followed by Aphox (sprayed as Treatment 2)”; in data set [3] (third trial (slot trial), Holbeach location, counted 7 days following application, low aphid infestation, Figure 13), “performed as efficaciously as the conventional pesticides tested”. Moreover, the “activity against naturally infested Aphis fabae in field trials” value in data set [3] (4 and 8 days after application, Figure 15) is “acted comparably to Hallmark Zeon insecticide”. For the same compound, the “reduction in naturally infested Aphis gossypii numbers as a percentage of untreated control crop” value in data set [4] is “performing with close efficacy to the conventional pesticide equivalent tested”. Moreover, the “activity against Myzus persicae” value in data set [5] was “good activity”.
